Remaining activity data for two compounds are collected here from publication PMC8617627, “Novel DYRK1A Inhibitor Rescues Learning and Memory Deficits in a Mouse Model of Down Syndrome” (Pharmaceuticals, 2021).

Assay in all cases: Kinase profile (33P ATP filter binding)
Common to all, as to assay type: biochemical
What all share (conditions): read-out: Remaining protein kinase activity

The target in one assay is T1, BRSK1 (Homo sapiens, UniProt Q8TDC3).
T1 sequence (Q8TDC3 1-778): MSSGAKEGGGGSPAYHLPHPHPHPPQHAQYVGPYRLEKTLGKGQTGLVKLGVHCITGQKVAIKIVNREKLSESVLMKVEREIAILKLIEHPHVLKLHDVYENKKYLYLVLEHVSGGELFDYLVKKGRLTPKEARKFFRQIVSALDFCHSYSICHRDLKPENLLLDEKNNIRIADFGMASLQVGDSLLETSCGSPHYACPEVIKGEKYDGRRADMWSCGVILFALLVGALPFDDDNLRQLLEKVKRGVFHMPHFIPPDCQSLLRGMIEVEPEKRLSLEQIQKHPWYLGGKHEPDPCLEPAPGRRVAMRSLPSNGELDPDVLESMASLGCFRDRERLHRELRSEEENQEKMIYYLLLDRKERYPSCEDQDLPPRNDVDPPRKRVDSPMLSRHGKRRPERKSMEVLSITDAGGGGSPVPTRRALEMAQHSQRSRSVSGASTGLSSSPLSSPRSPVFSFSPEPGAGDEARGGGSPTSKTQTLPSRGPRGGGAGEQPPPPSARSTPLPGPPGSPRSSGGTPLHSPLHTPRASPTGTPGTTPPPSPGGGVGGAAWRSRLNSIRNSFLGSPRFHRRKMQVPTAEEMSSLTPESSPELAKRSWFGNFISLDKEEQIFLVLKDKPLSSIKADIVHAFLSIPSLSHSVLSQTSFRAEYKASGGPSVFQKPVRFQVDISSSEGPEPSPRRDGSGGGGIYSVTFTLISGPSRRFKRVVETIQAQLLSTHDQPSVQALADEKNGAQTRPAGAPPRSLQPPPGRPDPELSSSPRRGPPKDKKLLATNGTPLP
The method, then:
(§1) The compounds were diluted to the appropriate concentration. The compounds were added to a “mother plate” consisting of samples, controls, and blanks. These serve as the source for “daughter plates” which are stored at −20 °C until assay initiation. Protein Kinases: Enzyme/Substrate mixture was added to the compound, and the compounds were incubated for five minutes at room temperature (RT). ^33P ATP was added to the compounds to initiate the assay. Orthophosphoric acid was added to the compounds to halt the assay. Assay components were harvested onto P81 filter plates, filter plates were air-dried, scintillation fluid was added to plates, and counts were read on a Topcount NXT. A mean percentage activity was calculated.

A further assay has as its target T2, IKKe (Homo sapiens, UniProt Q14164).
T2 sequence (Q14164 1-716): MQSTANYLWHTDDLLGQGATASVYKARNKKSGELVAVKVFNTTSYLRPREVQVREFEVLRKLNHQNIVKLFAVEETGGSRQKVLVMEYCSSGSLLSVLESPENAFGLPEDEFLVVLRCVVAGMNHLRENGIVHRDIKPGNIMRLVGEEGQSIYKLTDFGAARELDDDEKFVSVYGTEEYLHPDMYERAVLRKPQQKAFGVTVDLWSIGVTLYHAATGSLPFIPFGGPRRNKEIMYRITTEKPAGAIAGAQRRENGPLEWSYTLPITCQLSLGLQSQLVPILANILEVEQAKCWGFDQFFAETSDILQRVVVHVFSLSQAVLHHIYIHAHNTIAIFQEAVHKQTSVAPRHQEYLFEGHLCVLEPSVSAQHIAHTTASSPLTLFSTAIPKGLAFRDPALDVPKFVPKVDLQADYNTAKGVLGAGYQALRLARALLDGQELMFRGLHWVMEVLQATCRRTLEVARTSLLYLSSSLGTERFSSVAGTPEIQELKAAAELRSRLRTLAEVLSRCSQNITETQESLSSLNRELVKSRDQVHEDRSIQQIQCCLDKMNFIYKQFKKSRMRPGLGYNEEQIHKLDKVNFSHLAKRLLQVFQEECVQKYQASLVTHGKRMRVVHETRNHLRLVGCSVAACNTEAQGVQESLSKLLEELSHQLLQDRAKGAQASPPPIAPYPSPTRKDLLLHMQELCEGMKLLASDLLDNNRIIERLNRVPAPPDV
The method, then:
as §1

The target of the next assay is T3, TTK (Homo sapiens, UniProt P33981).
T3 sequence (P33981 1-857): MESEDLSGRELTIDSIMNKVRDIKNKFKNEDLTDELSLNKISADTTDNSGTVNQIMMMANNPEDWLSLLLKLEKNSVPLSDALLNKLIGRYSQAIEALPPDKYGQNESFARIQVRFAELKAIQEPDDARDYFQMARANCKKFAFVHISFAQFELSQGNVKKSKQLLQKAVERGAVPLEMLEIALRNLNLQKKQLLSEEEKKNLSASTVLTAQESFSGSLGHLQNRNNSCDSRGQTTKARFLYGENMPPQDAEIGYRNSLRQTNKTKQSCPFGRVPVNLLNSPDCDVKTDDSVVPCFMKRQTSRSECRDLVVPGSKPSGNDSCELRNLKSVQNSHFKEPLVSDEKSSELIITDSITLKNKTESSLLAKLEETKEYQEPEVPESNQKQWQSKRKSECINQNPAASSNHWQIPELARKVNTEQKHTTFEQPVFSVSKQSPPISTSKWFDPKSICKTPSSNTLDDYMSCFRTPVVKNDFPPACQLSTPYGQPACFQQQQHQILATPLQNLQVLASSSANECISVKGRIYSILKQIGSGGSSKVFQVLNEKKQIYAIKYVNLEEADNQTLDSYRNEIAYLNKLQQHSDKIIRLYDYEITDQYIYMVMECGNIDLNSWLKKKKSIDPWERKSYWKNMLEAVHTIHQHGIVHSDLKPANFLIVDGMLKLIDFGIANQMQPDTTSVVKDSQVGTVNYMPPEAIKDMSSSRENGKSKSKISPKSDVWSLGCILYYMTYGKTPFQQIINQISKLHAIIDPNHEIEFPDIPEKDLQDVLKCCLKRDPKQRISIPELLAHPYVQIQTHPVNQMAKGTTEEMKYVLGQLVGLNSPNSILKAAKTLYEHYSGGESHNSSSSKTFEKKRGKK
The method, then:
as §1

Where two headings read alike, the source gives them in different places.

As to `COc1ccc2sc(-c3cncc(N)c3)nc2c1` [compound 1, 5-(5-Methoxybenzo[d]thiazol-2-yl)pyridin-3-amine], the remaining activity at 1 µM at BRSK1 (BRSK1, 1 μM) is 115%; at IKKe (IKKe, 1 μM), 110%; on TTK (TTK, 1 μM), 86%. Further, the remaining activity at 100 µM is 37% on BRSK1 (BRSK1, 100 μM); 55% at IKKe (IKKe, 100 μM); 47% at TTK (TTK, 100 μM).
Consider `COc1ccc2sc(-c3cncc(NC(C)=O)c3)nc2c1` [PST-001, N-(5-(5-Methoxybenzo[d]thiazol-2-yl)pyridin-3-yl)acetamide], for which the remaining activity at 1 µM at BRSK1 worked out at 114%; on IKKe, 105%; on TTK it was 88%. The figures for the remaining activity at 100 µM on BRSK1, on IKKe and at TTK were 111%, 122% and 69%, respectively.

A word on the remaining activity: it is the signal under treatment as a percentage of the control signal.
